Measurements as given in patent US20220040129A1, “TREATMENT OF HYPERAMMONEMIA IN PATIENTS WITH RENAL INSUFFICIENCY” (RECORDATI S.p.A., priority 2019, published 2022).
Like-named read-outs stand apart in the source and are kept apart here.

Tests used:
[1] = CARIV-A-001 Part A: single ascending IV doses over 20 minutes in healthy subjects; format: in vivo, human; conditions: both sexes, human, plasma, iv
Procedure: This study was conducted in healthy male or female volunteers, at a single site to assess the safety and PK profile of an IV formulation of Carbaglu and to determine the absolute bioavailability of the current marketed oral formulation of Carbaglu.
The levels of CGA in plasma and urine were analysed using a fully validated method, which included LC-MS/MS analysis. The PK data were analysed based on a non-compartmental model. A model-based approach was implemented for the characterization of the PK properties of the IV formulation in order to estimate the level of PK exposure after different doses administered with different duration of infusion. […] The PK parameters were determined using SAS (version 9.3), and modelling of the PK data was performed using NONMEM (version 7.3, ICON Solutions). PART A: Mono-Centre, Randomized, Successive Groups, Double-Blind, Placebo-Controlled Study in Healthy Male and Female Subjects
Each cohort included a minimum of 3 and maximum of 5 subjects of each of the two genders.
Three loading doses of CGA over 20 minutes were tested by IV administration, 3.5 mg/kg, 5.0 mg/kg and 7.5 mg/kg. For each of these three doses, 6 subjects were administered CGA and 2 received the placebo.
Plasma concentrations of CGA were measured at 18 timepoints, including a sample preceding the start of the administration, and then between 10 minutes and 48 hours following the initiation of the IV infusion.
The PK analysis of Carbaglu was conducted by using standard non-compartmental approach.

[2] = target: CYP2D6 (Homo sapiens, UniProt P10635); experiment: In vitro CYP inhibition; format: in vitro ADME
CYP2D6, sequence (P10635 whole entry): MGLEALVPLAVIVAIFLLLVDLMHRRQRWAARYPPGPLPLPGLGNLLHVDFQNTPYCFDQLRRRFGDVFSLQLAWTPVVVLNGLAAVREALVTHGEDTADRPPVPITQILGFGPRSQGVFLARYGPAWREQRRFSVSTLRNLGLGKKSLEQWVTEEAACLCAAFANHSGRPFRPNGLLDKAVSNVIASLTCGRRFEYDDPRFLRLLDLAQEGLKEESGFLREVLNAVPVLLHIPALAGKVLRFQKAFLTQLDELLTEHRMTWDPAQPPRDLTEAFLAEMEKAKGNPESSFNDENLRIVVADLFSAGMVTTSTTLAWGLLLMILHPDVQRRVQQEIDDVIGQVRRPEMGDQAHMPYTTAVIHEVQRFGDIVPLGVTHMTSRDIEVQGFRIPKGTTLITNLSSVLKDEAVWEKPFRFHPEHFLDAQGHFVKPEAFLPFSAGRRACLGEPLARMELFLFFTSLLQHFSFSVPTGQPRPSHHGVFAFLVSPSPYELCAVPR

[3] = test system: plasma NH3; conditions: cited from earlier work
[4] = in most cases, carglumic acid alone, 13 episodes
[5] = second block headed All (N = 5), First 24 hrs
[6] = second block headed All (N = 5), First 48 hrs

NC(=O)N[C@@H](CCC(=O)O)C(=O)O [carglumic acid, N-carbamoyl-L-glutamic acid]
Vd ([1]; 5 mg/kg, IV over 20 minutes, 5.0 mg/kg, read-out: Volume of Distribution (Vd), Range): 4.62 to 12.8 L/kg | AUC(0-t) ([1]; 7.5 mg/kg, IV over 20 minutes, 7.5 mg/kg, read-out: AUC24h, Mean): 21600 ng·h/mL | AUC(0-t) ([1]; 7.5 mg/kg, IV over 20 minutes, 7.5 mg/kg, read-out: AUC24h, Median): 20700 ng·h/mL | AUC(0-t) ([1]; 7.5 mg/kg, IV over 20 minutes, 7.5 mg/kg, read-out: AUC24h, Range): 19200 to 26900 ng·h/mL | AUC(0-inf) ([1]; 7.5 mg/kg, IV over 20 minutes, 7.5 mg/kg, read-out: AUCinf, Mean): 23900 ng·h/mL | AUC(0-inf) ([1]; 7.5 mg/kg, IV over 20 minutes, 7.5 mg/kg, read-out: AUCinf, Median): 23200 ng·h/mL | AUC(0-inf) ([1]; 7.5 mg/kg, IV over 20 minutes, 7.5 mg/kg, read-out: AUCinf, Range): 20200 to 29100 ng·h/mL | AUC(0-t) ([1]; 7.5 mg/kg, IV over 20 minutes, 7.5 mg/kg, read-out: AUClast-timepoint, Mean): 22600 ng·h/mL | AUC(0-t) ([1]; 7.5 mg/kg, IV over 20 minutes, 7.5 mg/kg, read-out: AUClast-timepoint, Median): 22100 ng·h/mL | AUC(0-t) ([1]; 7.5 mg/kg, IV over 20 minutes, 7.5 mg/kg, read-out: AUClast-timepoint, Range): 19600 to 27800 ng·h/mL | clearance ([1]; 7.5 mg/kg, IV over 20 minutes, 7.5 mg/kg, read-out: Clearance (Cl), Mean): 5.33 mL/min/kg | clearance ([1]; 7.5 mg/kg, IV over 20 minutes, 7.5 mg/kg, read-out: Clearance (Cl), Median): 5.33 mL/min/kg | clearance ([1]; 7.5 mg/kg, IV over 20 minutes, 7.5 mg/kg, read-out: Clearance (Cl), Range): 4.33 to 6.17 mL/min/kg | Cmax ([1]; 7.5 mg/kg, IV over 20 minutes, 7.5 mg/kg, read-out: Cmax, Mean): 22900 ng/mL | Cmax ([1]; 7.5 mg/kg, IV over 20 minutes, 7.5 mg/kg, read-out: Cmax, Median): 23200 ng/mL | half-life ([1]; 7.5 mg/kg, IV over 20 minutes, 7.5 mg/kg, read-out: T1/2, Mean): 24.8 h | half-life ([1]; 7.5 mg/kg, IV over 20 minutes, 7.5 mg/kg, read-out: T1/2, Median): 25.5 h | half-life ([1]; 7.5 mg/kg, IV over 20 minutes, 7.5 mg/kg, read-out: T1/2, Range): 15.3 to 35.4 h | Vd ([1]; 7.5 mg/kg, IV over 20 minutes, 7.5 mg/kg, read-out: Volume of Distribution (Vd), Mean): 11.2 L/kg | Vd ([1]; 7.5 mg/kg, IV over 20 minutes, 7.5 mg/kg, read-out: Volume of Distribution (Vd), Median): 10.8 L/kg | Vd ([1]; 7.5 mg/kg, IV over 20 minutes, 7.5 mg/kg, read-out: Volume of Distribution (Vd), Range): 7.02 to 17.5 L/kg | half-life ([1]; IV over 20 minutes, across dose groups 3.5-7.5 mg/kg, read-out: Half-life, mean value (converted)): 22 h | half-life ([1]; IV over 20 minutes, each cohort, read-out: Half-life, range of cohort means): 20.6 to 24.8 h | Vd ([1]; IV over 20 minutes, each cohort, read-out: Volume of distribution (Vd), range of cohort means): 9.3 to 11.2 L/kg | clearance ([1]; IV over 20 minutes, in each cohort, read-out: Total body clearance, mean value (converted)): 5.33 mL/min/kg | Vd ([1]; IV over 20 minutes, read-out: Vss, range of cohort means): 2.21 to 2.39 L/kg | Vd ([1]; after IV administration, overall analysis on the three groups, read-out: Volume of distribution, median): 10.2 L/kg | half-life ([1]; after IV administration, read-out: Terminal half-life, median (converted)): ~22 h | half-life ([1]; after IV administration, read-out: Terminal half-life, range): 7 to 36 h | clearance ([1]; after IV administration, read-out: Total clearance, median): 354 mL/min | clearance ([1]; after IV administration, read-out: Total clearance, range): 241 to 502 mL/min | Inhibition of CYP2D6 [2]: not an inhibitor | Plasma NH3 level, Mean (SD) ([3]; All episodes, First 24 hrs): 94.6 (47.6) micromol/L | Plasma NH3 level, Median ([3]; All episodes, First 24 hrs): 100.0 µmol/L | Plasma NH3 level, Min-Max ([3]; All episodes, First 24 hrs): 43.3 to 187.9 µmol/L | Plasma NH3 level, Q1-Q3 ([3]; All episodes, First 24 hrs): 50.0 to 110.5 µmol/L | Plasma NH3 level, Mean (SD) ([3]; All episodes, First 48 hrs): 80.5 (43.4) micromol/L | Plasma NH3 level, Median ([3]; All episodes, First 48 hrs): 66.0 µmol/L | Plasma NH3 level, Min-Max ([3]; All episodes, First 48 hrs): 32.0 to 187.9 µmol/L | Plasma NH3 level, Q1-Q3 ([3]; All episodes, First 48 hrs): 50.0 to 100.0 µmol/L | Plasma NH3 level, Mean (SD) ([3]; Non-Neonates, First 24 hrs): 106.1 (56.6) micromol/L | Plasma NH3 level, Median ([3]; Non-Neonates, First 24 hrs): 100.0 µmol/L | Plasma NH3 level, Min-Max ([3]; Non-Neonates, First 24 hrs): 47.6 to 187.9 µmol/L | Plasma NH3 level, Q1-Q3 ([3]; Non-Neonates, First 24 hrs): 50.0 to 170.0 µmol/L | Plasma NH3 level, Mean (SD) ([3]; Non-Neonates, First 48 hrs): 81.8 (52.2) micromol/L | Plasma NH3 level, Median ([3]; Non-Neonates, First 48 hrs): 58.0 µmol/L | Plasma NH3 level, Min-Max ([3]; Non-Neonates, First 48 hrs): 32.0 to 187.9 µmol/L | Plasma NH3 level, Q1-Q3 ([3]; Non-Neonates, First 48 hrs): 48.8 to 110.5 µmol/L | Time within which a marked reduction in plasma NH3 levels was observed [3, 4]: ≤ 6 h | Time within which plasma NH3 values were normalized [3, 4]: ≤ 30 h | Plasma NH3 level, Mean (SD) [3, 5]: 78.5 (29.6) micromol/L | Plasma NH3 level, Median [3, 5]: 100.0 µmol/L | Plasma NH3 level, Min-Max [3, 5]: 42.3 to 100.0 µmol/L | Plasma NH3 level, Q1-Q3 [3, 5]: 50.0 to 100.0 µmol/L | Plasma NH3 level, Mean (SD) [3, 6]: 78.5 (29.6) micromol/L | Plasma NH3 level, Median [3, 6]: 100.0 µmol/L | Plasma NH3 level, Min-Max [3, 6]: 42.3 to 100.0 µmol/L | Plasma NH3 level, Q1-Q3 [3, 6]: 50.0 to 100.0 µmol/L
